Data taken from patent US10941158B2, “Pyrazole ACC inhibitors and uses thereof” (Gilead Apollo, LLC, priority 2015, dated 2021).
In brackets after ≈: the same amount, converted by molar mass. Read-outs that look alike come from different tables or passages of the source.

Key:
Septoria tritici (St) = assay: Growth inhibition assay of fungal pathogens; assay type: cell-based; conditions: for IC90: Zymoseptoria tritici, read-out: Concentration at 90% Inhibition St
Outline: (§1)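 Percent growth inhibition was derived from 48 h OD600 and visual scores relative to 2% DMSO, with blank background subtraction. Fungi were grown from spores in 17% V8 liquid medium, R. solani from 1.5 mm plugs in ¼ PDB, with compound at final 50/10/2 or 2/0.4/0.08 ppm.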

Rhizoctonia solani (Rs) = assay: Growth inhibition assay of fungal pathogens; assay type: cell-based; conditions: 48 h, read-out: Concentration at 90% Inhibition Rs
Outline: (§2)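 Compounds in DMSO tested at final 50, 10, 2 ppm or 2, 0.4, 0.08 ppm. Spores in 17% V8 medium, or 1.5 mm mycelial plugs in ¼ PDB for R. solani, incubated with compound. OD600 and visual ratings at 48 h versus 2% DMSO control gave percent growth inhibition.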

Diplodia maydis (Dm) = assay: Growth inhibition assay of fungal pathogens; assay type: cell-based; conditions: Stenocarpella maydis, 48 h, read-out: Concentration at 90% Inhibition Dm
Outline: as §2

Botrtyis cinerea (Bc) = assay: Growth inhibition assay of fungal pathogens; assay type: cell-based; conditions: 48 h, read-out: Concentration at 90% Inhibition Bc
Outline: as §2

[1] = tested on: Fusarium moniliforme (Fm); assay: Growth inhibition assay of fungal pathogens; assay type: cell-based; conditions: for IC90: Fusarium verticillioides, 48 h, read-out: Concentration at 90% Inhibition Fm
Outline: as §2

[2] = tested on: Phytophthora capsici (Pc); assay: Growth inhibition assay of fungal pathogens; assay type: cell-based; conditions: for IC90: Phytophthora capsici, read-out: Concentration at 90% Inhibition Pc
Outline: as §1

[3] = tested on: Fusarium virguliforme (Fv); assay: Growth inhibition assay of fungal pathogens; assay type: cell-based; conditions: 48 h
Outline: as §1

[4] = tested on: Collectotrichum graminicola (Cg); assay: Growth inhibition assay of fungal pathogens; assay type: cell-based; conditions: 48 h, read-out: Concentration at 90% Inhibition Cg
Outline: as §1

fungal (fACC2) ACC2 = fungal (fACC2) ACC2 (UniProt Q00955); conditions: read-out: fACC2 IC50; fungal ACC2, ADP-Glo
fungal (fACC2) ACC2, sequence (Q00955 whole entry): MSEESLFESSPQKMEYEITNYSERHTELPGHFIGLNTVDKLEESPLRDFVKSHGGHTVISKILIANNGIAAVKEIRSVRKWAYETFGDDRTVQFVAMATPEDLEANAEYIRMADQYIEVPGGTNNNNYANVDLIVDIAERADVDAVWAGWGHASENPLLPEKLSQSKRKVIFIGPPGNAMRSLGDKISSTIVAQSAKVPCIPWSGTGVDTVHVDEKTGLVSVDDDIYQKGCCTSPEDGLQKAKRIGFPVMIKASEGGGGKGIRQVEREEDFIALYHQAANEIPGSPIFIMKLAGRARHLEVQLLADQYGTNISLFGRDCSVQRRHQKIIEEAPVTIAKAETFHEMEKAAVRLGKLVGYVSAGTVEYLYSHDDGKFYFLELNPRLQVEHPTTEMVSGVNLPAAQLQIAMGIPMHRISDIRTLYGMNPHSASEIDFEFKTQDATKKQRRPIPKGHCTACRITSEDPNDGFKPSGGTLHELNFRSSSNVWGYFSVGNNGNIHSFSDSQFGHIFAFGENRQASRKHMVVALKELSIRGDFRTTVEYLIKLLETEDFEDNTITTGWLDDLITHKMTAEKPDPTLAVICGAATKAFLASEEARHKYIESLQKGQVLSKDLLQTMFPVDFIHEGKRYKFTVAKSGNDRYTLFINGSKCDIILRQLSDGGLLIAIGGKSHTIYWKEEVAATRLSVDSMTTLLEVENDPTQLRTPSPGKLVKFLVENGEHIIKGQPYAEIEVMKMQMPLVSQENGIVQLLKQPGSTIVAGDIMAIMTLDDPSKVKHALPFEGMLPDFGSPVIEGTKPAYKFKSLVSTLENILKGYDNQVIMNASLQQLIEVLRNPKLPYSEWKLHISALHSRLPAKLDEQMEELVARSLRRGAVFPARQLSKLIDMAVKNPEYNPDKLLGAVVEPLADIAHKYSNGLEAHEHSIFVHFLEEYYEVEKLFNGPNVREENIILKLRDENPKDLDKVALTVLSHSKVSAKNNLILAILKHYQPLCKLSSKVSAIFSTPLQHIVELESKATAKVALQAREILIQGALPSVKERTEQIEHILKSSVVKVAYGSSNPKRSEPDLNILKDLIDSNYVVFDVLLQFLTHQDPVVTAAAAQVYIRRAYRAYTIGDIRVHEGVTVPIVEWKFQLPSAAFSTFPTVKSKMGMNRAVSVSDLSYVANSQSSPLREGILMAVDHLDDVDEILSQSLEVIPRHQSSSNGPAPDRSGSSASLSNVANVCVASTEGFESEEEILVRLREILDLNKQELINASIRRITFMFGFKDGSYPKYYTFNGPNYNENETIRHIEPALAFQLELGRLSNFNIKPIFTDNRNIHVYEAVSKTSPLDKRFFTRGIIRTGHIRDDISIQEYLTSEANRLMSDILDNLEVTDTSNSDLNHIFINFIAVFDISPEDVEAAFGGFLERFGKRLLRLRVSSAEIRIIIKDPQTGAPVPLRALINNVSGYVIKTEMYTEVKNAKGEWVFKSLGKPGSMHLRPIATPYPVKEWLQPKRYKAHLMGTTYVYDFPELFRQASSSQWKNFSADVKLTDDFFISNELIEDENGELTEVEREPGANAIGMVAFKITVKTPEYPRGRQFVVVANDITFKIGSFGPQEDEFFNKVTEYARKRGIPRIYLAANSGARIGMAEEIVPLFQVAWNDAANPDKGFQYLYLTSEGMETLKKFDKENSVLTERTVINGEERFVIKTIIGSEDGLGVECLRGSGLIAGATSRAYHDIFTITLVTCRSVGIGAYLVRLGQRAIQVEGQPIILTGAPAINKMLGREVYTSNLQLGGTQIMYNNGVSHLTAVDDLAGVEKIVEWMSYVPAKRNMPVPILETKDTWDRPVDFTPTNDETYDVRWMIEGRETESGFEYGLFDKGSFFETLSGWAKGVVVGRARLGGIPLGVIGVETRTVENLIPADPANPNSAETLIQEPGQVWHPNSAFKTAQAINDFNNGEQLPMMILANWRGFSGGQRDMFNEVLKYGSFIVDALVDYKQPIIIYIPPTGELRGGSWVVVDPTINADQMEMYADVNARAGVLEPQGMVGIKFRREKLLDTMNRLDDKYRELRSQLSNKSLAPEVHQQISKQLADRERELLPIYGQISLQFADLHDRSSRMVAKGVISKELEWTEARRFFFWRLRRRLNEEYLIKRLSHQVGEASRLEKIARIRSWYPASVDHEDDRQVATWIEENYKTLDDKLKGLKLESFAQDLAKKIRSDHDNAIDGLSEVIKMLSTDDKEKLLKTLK
Method: An exemplary procedure for the in vitro ACC inhibition assay, which can be used to determine the inhibitory action of compounds of the invention toward either human (hACC2) or fungal (fACC2) ACC2, follows. The ADP-Glo™ Kinase Assay kit from Promega was used. The ADP-Glo™ Kinase Assay is a luminescent ADP detection assay to measure enzymatic activity by quantifying the amount of ADP produced during an enzyme reaction. The assay is performed in two steps; first, after the enzyme reaction, an equal volume of ADP-Glo™ Reagent is added to terminate the reaction and deplete the remaining ATP. Second, the Kinase Detection Reagent is added to simultaneously convert ADP to ATP and allow the newly synthesized ATP to be measured using a luciferase/luciferin reaction. Luminescence can be correlated to ADP concentrations by using an ATP-to-ADP conversion curve. The detailed procedure is as follows. 50 μL of the compound being tested (600 μM in DMSO) was added to a 384-well dilution plate. The compound was diluted 1:3 in succession in DMSO for each row for 11 wells. 0.5 μL ACC2 working solution was added to 384-well white Optiplate assay plate. 0.5 μL diluted compound solution in each column from step 2 was added to assay plate, each row containing 2 replicates. […] The plates were incubated at room temperature for 15 minutes. 5 μL substrate working solution was added to each well to initiate reaction. Final ACC2 reaction concentrations consist of: 5 nM ACC2, 20 μM ATP, 20 μM acetyl-CoA, 12 mM NaHCO3, 0.01% Brij35, 2 mM DTT, 5% DMSO, test compound concentrations: 30 μM, 10 μM, 3.33 μM, 1.11 μM, 0.37 μM, 0.123 μM, 0.0411 μM, 0.0137 μM, 0.00457 μM, 0.00152 μM, and 0.00051 μM. Plates were incubated at room temperature for 60 minutes. 10 μL ADP glo reagent was added. Plates were incubated at room temperature for 40 minutes. 20 μL kinase detection reagent was added. Plates were incubated at room temperature for 40 minutes, and then read on a Perkin Elmer EnVision 2104 plate reader for luminescence as Relative Light Units (RLU).
Data for each concentration, as well as the positive and negative controls were averaged, and the standard deviation calculated. Percent inhibition was calculated by the formula: 100×(average negative control−compound)/(average negative control−average positive control). The IC50 for each compound was calculated by fitting the data with a non-linear regression equation: Y=Bottom+(Top-Bottom)/(1+10^((Log IC50−X)*Hill Slope)), where X is the log of compound concentration and Y is percent inhibition.
Compounds having an activity designated as “AA” provided an IC50 0.0006-0.003 μM; provided an “A” provided an IC50 0.003-0.01 μM; compounds having an activity designated as “B” provided an IC50 0.01-0.04 μM; and compounds having an activity designated as “C” provided an IC50>0.04 μM IC50. “NA” stands for “not assayed.”

human (hACC2) ACC2 = human (hACC2) ACC2 (Homo sapiens, UniProt O00763); assay: In vitro Acetyl-CoA Carboxylase (ACC) inhibition assay (ADP-Glo), hACC2; assay type: biochemical
human (hACC2) ACC2, sequence (O00763 whole entry): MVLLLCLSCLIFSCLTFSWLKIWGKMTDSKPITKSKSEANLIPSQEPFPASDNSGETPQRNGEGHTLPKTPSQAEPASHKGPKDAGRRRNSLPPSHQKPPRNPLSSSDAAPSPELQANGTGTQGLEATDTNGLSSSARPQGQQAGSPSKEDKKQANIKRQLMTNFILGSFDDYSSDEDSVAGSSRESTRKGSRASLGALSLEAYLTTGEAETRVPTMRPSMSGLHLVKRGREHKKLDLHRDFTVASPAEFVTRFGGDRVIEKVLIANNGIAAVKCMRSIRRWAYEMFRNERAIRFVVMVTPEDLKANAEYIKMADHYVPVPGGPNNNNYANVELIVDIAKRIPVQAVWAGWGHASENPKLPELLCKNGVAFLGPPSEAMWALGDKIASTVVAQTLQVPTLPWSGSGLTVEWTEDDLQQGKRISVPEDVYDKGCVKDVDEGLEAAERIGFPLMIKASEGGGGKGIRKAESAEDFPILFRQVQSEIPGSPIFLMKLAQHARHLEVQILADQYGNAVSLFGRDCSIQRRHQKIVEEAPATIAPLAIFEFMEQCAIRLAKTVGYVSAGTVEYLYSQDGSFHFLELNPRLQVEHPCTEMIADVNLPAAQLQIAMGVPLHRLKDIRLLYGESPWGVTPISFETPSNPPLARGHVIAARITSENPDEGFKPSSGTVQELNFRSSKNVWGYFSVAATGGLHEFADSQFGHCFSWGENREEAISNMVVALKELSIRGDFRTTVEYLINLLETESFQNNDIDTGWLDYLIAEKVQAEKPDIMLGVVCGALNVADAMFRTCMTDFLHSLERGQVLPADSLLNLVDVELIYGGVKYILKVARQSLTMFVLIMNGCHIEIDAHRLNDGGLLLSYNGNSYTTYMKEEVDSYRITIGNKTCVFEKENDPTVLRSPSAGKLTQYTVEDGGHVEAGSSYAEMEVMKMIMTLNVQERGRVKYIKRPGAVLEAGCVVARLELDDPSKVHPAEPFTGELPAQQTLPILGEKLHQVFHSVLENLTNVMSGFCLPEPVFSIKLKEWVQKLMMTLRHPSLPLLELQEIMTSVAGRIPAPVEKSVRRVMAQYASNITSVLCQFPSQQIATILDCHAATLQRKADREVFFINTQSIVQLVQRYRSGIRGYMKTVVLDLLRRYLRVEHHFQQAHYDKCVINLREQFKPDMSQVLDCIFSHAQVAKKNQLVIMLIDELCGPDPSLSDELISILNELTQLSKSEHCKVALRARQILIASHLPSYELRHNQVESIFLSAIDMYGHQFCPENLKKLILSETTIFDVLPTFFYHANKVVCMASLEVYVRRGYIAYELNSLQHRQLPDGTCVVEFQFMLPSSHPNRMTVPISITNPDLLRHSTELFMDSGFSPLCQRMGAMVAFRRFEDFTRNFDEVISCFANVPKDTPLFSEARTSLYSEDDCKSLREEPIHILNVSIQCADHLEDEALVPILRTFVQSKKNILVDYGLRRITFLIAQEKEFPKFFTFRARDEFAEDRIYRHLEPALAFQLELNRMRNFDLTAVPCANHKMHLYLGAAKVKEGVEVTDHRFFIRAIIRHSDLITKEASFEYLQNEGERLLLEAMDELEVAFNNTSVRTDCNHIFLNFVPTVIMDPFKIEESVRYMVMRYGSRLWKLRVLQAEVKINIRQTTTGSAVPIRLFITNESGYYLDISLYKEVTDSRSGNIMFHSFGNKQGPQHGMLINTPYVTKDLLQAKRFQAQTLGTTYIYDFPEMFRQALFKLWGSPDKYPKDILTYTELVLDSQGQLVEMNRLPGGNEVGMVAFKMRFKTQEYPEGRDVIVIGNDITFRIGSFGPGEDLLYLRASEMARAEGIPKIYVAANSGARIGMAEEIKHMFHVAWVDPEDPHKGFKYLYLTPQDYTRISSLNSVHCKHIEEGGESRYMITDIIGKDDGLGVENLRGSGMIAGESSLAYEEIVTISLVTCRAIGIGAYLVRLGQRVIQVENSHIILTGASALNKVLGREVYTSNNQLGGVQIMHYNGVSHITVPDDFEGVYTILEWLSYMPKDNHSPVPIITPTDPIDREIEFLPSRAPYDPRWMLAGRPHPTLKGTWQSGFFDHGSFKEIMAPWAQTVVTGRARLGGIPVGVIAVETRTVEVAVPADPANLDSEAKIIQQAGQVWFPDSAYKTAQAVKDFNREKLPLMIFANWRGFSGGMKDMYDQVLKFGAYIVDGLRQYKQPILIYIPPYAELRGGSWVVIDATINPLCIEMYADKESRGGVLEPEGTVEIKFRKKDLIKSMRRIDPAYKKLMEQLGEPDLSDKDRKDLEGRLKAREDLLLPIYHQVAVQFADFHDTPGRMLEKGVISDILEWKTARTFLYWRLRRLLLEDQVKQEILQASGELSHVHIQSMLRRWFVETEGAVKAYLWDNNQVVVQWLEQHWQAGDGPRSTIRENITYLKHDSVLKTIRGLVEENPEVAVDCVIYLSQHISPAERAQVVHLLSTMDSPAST
Method: The detailed procedure is as follows. […] 10 μL ADP glo reagent was added. […] 20 μL kinase detection reagent was added.
“NA” stands for “not assayed.”

C. krusei ATCC 6258 = assay: Anti-Fungal (Candida) Activity Assay, broth microtiter MIC; assay type: cell-based; conditions: Pichia kudriavzevii, read-out: MIC C. krusei ATCC 6258
Outline: (§3)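 Test compounds were dissolved in DMSO at 1 mg/mL (stock) and challenged against direct colony suspensions in RPMI 1640 with MOPS under CLSI M27-A3 broth microdilution. Growth was judged by eye relative to drug-free control after 48 h.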

[5] = tested on: C. parapsilosis ATCC 22019; assay: as above; assay type: cell-based; conditions: Lodderomyces parapsilosis, read-out: MIC C. parapsilosis ATCC 22019
Outline: as §3

C. albicans ATCC 90028 = assay: as above; assay type: cell-based; conditions: read-out: MIC C. albicans ATCC 90028
Outline: as §3

[6] = read-out: Concentration at 90% Inhibition Fv, Table 4a, 48 hours
[7] = read-out: Concentration at 90% Inhibition Fv, Table 4b, 48 hours
[8] = Table 4a, 48 hours, read-out: Concentration at 90% Inhibition Fv
[9] = Table 4b, 48 hours, read-out: Concentration at 90% Inhibition Fv
[10] = ATCC6258, 3 replicates, MIC recorded at 48 h
[11] = ATCC22019, 3 replicates, MIC recorded at 48 h
[12] = ATCC90028, 3 replicates, MIC recorded at 48 h

Structure (SMILES) | IC90 (Septoria tritici (St); 48 h, Table 4a) [µg/mL] | IC90 (Septoria tritici (St); 48 h, Table 4b) [µg/mL] | IC90 (Rhizoctonia solani (Rs); Table 4a) [µg/mL] | IC90 (Rhizoctonia solani (Rs); Table 4b) [µg/mL] | IC90 (Diplodia maydis (Dm); Table 4a) [µg/mL] | IC90 (Diplodia maydis (Dm); Table 4b) [µg/mL] | IC90 (Botrtyis cinerea (Bc); Table 4a) [µg/mL] | IC90 (Botrtyis cinerea (Bc); Table 4b) [µg/mL] | IC90 [1] [µg/mL] | Concentration at 90% Inhibition Fm ([1]; Table 4b, 48 hours) | IC90 ([2]; 48 h, Table 4a) [µg/mL] | IC90 ([2]; 48 h, Table 4b) [µg/mL] | IC90 [3, 6] [µg/mL] | IC90 [3, 7] [µg/mL] | IC90 ([4]; Table 4a) [µg/mL] | IC90 ([4]; Table 4b) [µg/mL] | IC50 (fungal (fACC2) ACC2) [nM] | IC50 (human (hACC2) ACC2) [nM] | MIC (C. krusei ATCC 6258; ATCC6258, 48 h) [µg/mL] | MIC ([5]; ATCC22019, 48 h) [µg/mL] | other results
COc1ccc(F)cc1[C@H](Cn1c(=O)n(C(C)(C)C(=O)N2CCCCC2)c(=O)c2c(C)c(-n3cccn3)sc21)OC(C)C [Compound I-2, (R)-1-(2-(5-fluoro-2-methoxyphenyl)-2-isopropoxyethyl)-5-methyl-3-(2-methyl-1-oxo-1-(piperidin-1-yl)propan-2-yl)-6-(1H-pyrazol-1-yl)thieno[2,3-d]pyrimidine-2,4(1H,3H)-dione] | > 50 | > 50 | 0.4 (≈ 0.654 µM) | 0.4 (≈ 0.654 µM) | 0.4 (≈ 0.654 µM) | 0.4 (≈ 0.654 µM) | 0.4 (≈ 0.654 µM) | 0.4 (≈ 0.654 µM) | 0.08 (≈ 0.131 µM) | AA (“AA” provided a compound concentration of 0.08 ppm at 90% inhibition of fungal pathogens) | > 50 | > 50 | 0.4 (≈ 0.654 µM) | 0.4 (≈ 0.654 µM) | 2 (≈ 3.27 µM) | 2 (≈ 3.27 µM) | 0.6 to 3 | 10 to 40 | 0.25 to 1 (≈ 0.409 to 1.63 µM) | 1.1 to 2 (≈ 1.8 to 3.27 µM) | MIC (C. albicans ATCC 90028; ATCC90028, 48 h): 0.25 to 1 µg/mL (≈ 0.409 to 1.63 µM)
COc1ccccc1[C@H](Cn1c(=O)n(C(C)(C)C(=O)N2CCCCC2)c(=O)c2c(C)c(-n3cccn3)sc21)OC1CCOCC1 [Compound I-13, (R)-1-(2-(2-methoxyphenyl)-2-((tetrahydro-2H-pyran-4-yl)oxy)ethyl)-5-methyl-3-(2-methyl-1-oxo-1-(piperidin-1-yl)propan-2-yl)-6-(1H-pyrazol-1-yl)thieno[2,3-d]pyrimidine-2,4(1H,3H)-dione] | > 50 | > 50 | > 50 | 10 (≈ 15.7 µM) | > 50 | 10 (≈ 15.7 µM) | 2 (≈ 3.15 µM) | 2 (≈ 3.15 µM) | 0.4 (≈ 0.629 µM) | A (“A” provided a compound concentration of 0.4 ppm at 90% inhibition of fungal pathogens) | > 50 | > 50 | > 50 | 10 (≈ 15.7 µM) | > 50 | 10 (≈ 15.7 µM) | 0.6 to 3 | 10 to 40 | 0.25 to 1 (≈ 0.393 to 1.57 µM) | 1.1 to 2 (≈ 1.73 to 3.15 µM) | MIC (C. albicans ATCC 90028; ATCC90028, 48 h): 0.25 to 1 µg/mL (≈ 0.393 to 1.57 µM)
COc1ccccc1[C@H](Cn1c(=O)n(C(C)(C)C(=O)N2CCCC2)c(=O)c2c(C)c(-n3cccn3)sc21)OC(C)C [Compound I-18, (R)-1-(2-isopropoxy-2-(2-methoxyphenyl)ethyl)-5-methyl-3-(2-methyl-1-oxo-2-(pyrrolidin-1-yl)propan-2-yl)-6-(H-pyrazol-1-yl)thieno[2,3-d]pyrimidine-2,4(1H,3H)-dione] | – | – | 0.4 (≈ 0.69 µM) | 0.4 (≈ 0.69 µM) | 2 (≈ 3.45 µM) | 2 (≈ 3.45 µM) | 2 (≈ 3.45 µM) | 2 (≈ 3.45 µM) | – | – | – | – | – | – | 2 (≈ 3.45 µM) | 2 (≈ 3.45 µM) | 0.6 to 3 | 3 to 10 | – | – | Concentration at 90% Inhibition St (Septoria tritici (St); Table 4b, 48 hours): D (“D” provided a compound concentration of >50 ppm at 90% inhibition of fungal pathogens); IC90 (Septoria tritici (St); Table 4a, 48 hours): > 50 µg/mL; IC90 ([1]; Table 4a, 48 hours): 0.08 µg/mL (≈ 0.138 µM); IC90 ([1]; Table 4b, 48 hours): 0.08 µg/mL (≈ 0.138 µM); IC90 ([2]; Table 4a, 48 hours): > 50 µg/mL; Concentration at 90% Inhibition Pc ([2]; Table 4b, 48 hours): D (“D” provided a compound concentration of >50 ppm at 90% inhibition of fungal pathogens); IC90 [3, 8]: 0.4 µg/mL (≈ 0.69 µM); IC90 [3, 9]: 0.4 µg/mL (≈ 0.69 µM); MIC (C. krusei ATCC 6258; [10]): 2.1 to 4 µg/mL (≈ 3.62 to 6.9 µM); MIC [5, 11]: 2.1 to 4 µg/mL (≈ 3.62 to 6.9 µM); MIC (C. albicans ATCC 90028; [12]): 1.1 to 2 µg/mL (≈ 1.9 to 3.45 µM)
COc1ccc(F)cc1[C@H](Cn1c(=O)n(C(C)(C)C(=O)N2CCCC2)c(=O)c2c(C)c(-n3cccn3)sc21)OC(C)C [Compound I-24, (R)-1-(2-(5-fluoro-2-methoxyphenyl)-2-isopropoxyethyl)-5-methyl-3-(2-methyl-1-oxo-1-(pyrrolidin-1-yl)propan-2-yl)-6-(1H-pyrazol-1-yl)thieno[2,3-d]pyrimidine-2,4(1H,3H)-dione] | – | – | 0.4 (≈ 0.669 µM) | 0.4 (≈ 0.669 µM) | 2 (≈ 3.35 µM) | 2 (≈ 3.35 µM) | 0.4 (≈ 0.669 µM) | 0.4 (≈ 0.669 µM) | – | A A | – | – | – | – | 0.4 (≈ 0.669 µM) | 0.4 (≈ 0.669 µM) | 0.6 to 3 | 3 to 10 | – | – | Concentration at 90% Inhibition St (Septoria tritici (St); Table 4b, 48 hours): D (“D” provided a compound concentration of >50 ppm at 90% inhibition of fungal pathogens); IC90 (Septoria tritici (St); Table 4a, 48 hours): > 50 µg/mL; IC90 ([1]; Table 4a, 48 hours): 0.08 µg/mL (≈ 0.134 µM); IC90 ([2]; Table 4a, 48 hours): > 50 µg/mL; Concentration at 90% Inhibition Pc ([2]; Table 4b, 48 hours): D (“D” provided a compound concentration of >50 ppm at 90% inhibition of fungal pathogens); IC90 [3, 8]: 0.4 µg/mL (≈ 0.669 µM); IC90 [3, 9]: 0.4 µg/mL (≈ 0.669 µM); MIC (C. krusei ATCC 6258; [10]): 2.1 to 4 µg/mL (≈ 3.51 to 6.69 µM); MIC [5, 11]: > 4.1 µg/mL; MIC (C. albicans ATCC 90028; [12]): > 4.1 µg/mL
COc1ccc(F)cc1[C@H](Cn1c(=O)n(C(C)(C)C(=O)NC(C)C)c(=O)c2c(C)c(-n3cccn3)sc21)OC1CCC(=O)CC1 [Compound I-26, (R)-2-(1-(2-(5-fluoro-2-methoxyphenyl)-2-((4-oxocyclo-hexyl)oxy)ethyl)-5-methyl-2,4-dioxo-6-(1H-pyrazol-1-yl)-1,4-dihydro-thieno[2,3-d]pyrimidin-3(2H)-yl)-N-isopropyl-2-methylpropanamide] | > 50 | > 50 | 2 (≈ 3.13 µM) | 2 (≈ 3.13 µM) | 2 (≈ 3.13 µM) | 2 (≈ 3.13 µM) | 0.4 (≈ 0.625 µM) | 0.4 (≈ 0.625 µM) | 0.08 (≈ 0.125 µM) | – | > 50 | > 50 | 2 (≈ 3.13 µM) | 2 (≈ 3.13 µM) | > 50 | 10 (≈ 15.6 µM) | 0.6 to 3 | 3 to 10 | 0.25 to 1 (≈ 0.391 to 1.56 µM) | 1.1 to 2 (≈ 1.72 to 3.13 µM) | Concentration at 90% Inhibition Fm ([1]; Table 4a, 48 hours): A A; MIC (C. albicans ATCC 90028; ATCC90028, 48 h): 1.1 to 2 µg/mL (≈ 1.72 to 3.13 µM)
COc1ccc(F)cc1[C@H](Cn1c(=O)n(CC(=O)N2CCCC2)c(=O)c2c(C)c(-n3cccn3)sc21)OC(C)C [Compound I-28, (R)-1-(2-(5-fluoro-2-methoxyphenyl)-2-isopropoxyethyl)-5-methyl-3-(2-oxo-2-(pyrrolidin-1-yl)ethyl)-6-(1H-pyrazol-1-yl)thieno[2,3-d]pyrimidine-2,4(1H,3H)-dione] | – | – | 10 (≈ 17.6 µM) | 2 (≈ 3.51 µM) | > 50 | > 50 | 2 (≈ 3.51 µM) | 2 (≈ 3.51 µM) | – | – | – | – | – | – | > 50 | 10 (≈ 17.6 µM) | 0.6 to 3 | 10 to 40 | – | – | Concentration at 90% Inhibition St (Septoria tritici (St); Table 4b, 48 hours): D (“D” provided a compound concentration of >50 ppm at 90% inhibition of fungal pathogens); IC90 (Septoria tritici (St); Table 4a, 48 hours): > 50 µg/mL; IC90 ([1]; Table 4a, 48 hours): 0.4 µg/mL (≈ 0.702 µM); IC90 ([1]; Table 4b, 48 hours): 0.4 µg/mL (≈ 0.702 µM); IC90 ([2]; Table 4a, 48 hours): > 50 µg/mL; Concentration at 90% Inhibition Pc ([2]; Table 4b, 48 hours): D (“D” provided a compound concentration of >50 ppm at 90% inhibition of fungal pathogens); IC90 [3, 8]: 2 µg/mL (≈ 3.51 µM); IC90 [3, 9]: 2 µg/mL (≈ 3.51 µM); MIC (C. krusei ATCC 6258; [10]): 0.25 to 1 µg/mL (≈ 0.439 to 1.76 µM); MIC [5, 11]: 0.25 to 1 µg/mL (≈ 0.439 to 1.76 µM); MIC (C. albicans ATCC 90028; [12]): 0.25 to 1 µg/mL (≈ 0.439 to 1.76 µM)
